Measured values published in PubChem BioAssay (NCI).
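Where inhibition never reached the appropriate level, the endpoint shown equals the highest concentration tested. Otherwise, values were interpolated linearly from a five-concentration, 48-hour dose response in 96-well plates. TGI marks complete inhibition of growth.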

Key:
Assay in all cases: DTP human tumour cell line panel, 48 h
IGROV1 ovarian = tested on: IGROV1 ovarian
NCI-H460 lung = tested on: NCI-H460 lung
CCRF-CEM leukemia = tested on: CCRF-CEM leukemia
UO-31 renal = tested on: UO-31 renal
MOLT-4 leukemia = tested on: MOLT-4 leukemia
U251 CNS = tested on: U251 CNS
SK-MEL-2 melanoma = tested on: SK-MEL-2 melanoma
TK-10 renal = tested on: TK-10 renal
RXF 393 renal = tested on: RXF 393 renal
SNB-19 CNS = tested on: SNB-19 CNS
HT29 colon = tested on: HT29 colon
HS 578T breast = tested on: HS 578T breast
MCF7 breast = tested on: MCF7 breast
NCI-H522 lung = tested on: NCI-H522 lung
HCT-15 colon = tested on: HCT-15 colon
OVCAR-3 ovarian = tested on: OVCAR-3 ovarian
HCT-116 colon = tested on: HCT-116 colon
SW-620 colon = tested on: SW-620 colon
HOP-92 NSCLC = tested on: HOP-92 NSCLC
RPMI-8226 leukemia = tested on: RPMI-8226 leukemia

| Compound | TGI (IGROV1 ovarian) [µM] | TGI (NCI-H460 lung) [µM] | TGI (CCRF-CEM leukemia) [µM] | TGI (UO-31 renal) [µM] | TGI (MOLT-4 leukemia) [µM] | TGI (U251 CNS) [µM] | TGI (SK-MEL-2 melanoma) [µM] | TGI (TK-10 renal) [µM] | TGI (RXF 393 renal) [µM] | TGI (SNB-19 CNS) [µM] | TGI (HT29 colon) [µM] | TGI (HS 578T breast) [µM] | TGI (MCF7 breast) [µM] | TGI (NCI-H522 lung) [µM] | TGI (HCT-15 colon) [µM] | TGI (OVCAR-3 ovarian) [µM] | TGI (HCT-116 colon) [µM] | TGI (SW-620 colon) [µM] | TGI (HOP-92 NSCLC) [µM] | TGI (RPMI-8226 leukemia) [µM] |
| --- | --- | --- | --- | --- | --- | --- | --- | --- | --- | --- | --- | --- | --- | --- | --- | --- | --- | --- | --- | --- |
| Cc1cc2nn(C3CCCCO3)nc2cc1C (stereo not given) | > 100 | > 100 | > 100 | > 100 | > 100 | > 100 | > 100 | > 100 | > 100 | > 100 | > 100 | > 100 | > 100 | > 100 | > 100 | > 100 | > 100 |  |  |  |
| Cc1nc2ccc(F)cc2c2c1CCN2c1ccccc1 | > 100 | 36.1 | 53.2 | 68.1 | 52.4 | 78.9 |  | 71.5 | 35.7 | > 100 | > 100 | > 100 | 64.7 | 47.1 | > 100 | > 100 | 23.2 | > 100 | 37.8 | 37.1 |
| CCOP(=O)(OCC)c1cc2cc(O)ccc2oc1=O | > 100 | > 100 | > 100 | 0.151 |  | > 100 |  | > 100 | > 100 | > 100 | > 100 | > 100 | > 100 | > 100 | > 100 | > 100 | > 100 | > 100 | > 100 | > 100 |
| OC1C2CCC3C2CC(C(O)(c2ccccc2)c2ccccc2)C13 (stereo not given) | > 100 | > 100 | 95.1 | > 100 | 74 | > 100 | 48.2 | > 100 | 96.6 | > 100 | > 100 | > 100 | > 100 | > 100 | > 100 | 87.3 | > 100 | > 100 | > 100 |  |
| O=C1CC2(CCN(CC3COc4ccccc4O3)CC2)C(=O)N1N1CCCCCC1 (stereo not given) | > 100 |  | > 100 | > 100 | 63.6 | > 100 | > 100 | > 100 | > 100 | > 100 | 47.6 | > 100 | > 100 | > 100 | > 100 | > 100 | > 100 |  | > 100 | > 100 |
| Cc1ccc2c(=O)cc(-c3cc4ccccc4s3)[nH]c2n1 | > 100 | > 100 | > 100 | 0.17 | > 100 | > 100 | > 100 | > 100 | 97.2 | > 100 | > 100 | > 100 | > 100 | > 100 | > 100 | > 100 | > 100 | > 100 |  | > 100 |
